Experiments:
[1] = test system: Mino cells; experiment: Inhibitory activity on Mino cell proliferation (MTS); assay type: cell-based; settings: Homo sapiens, 168 h incubation
How it was run: (§1)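 Cells seeded at 10000/well, treated with compounds from 1000 nM (4-fold, 8 points) for 72 h (OCI-LY10) or 168 h (Mino) at 37° C. MTS added for 2 h, stopped with SDS, absorbance read at 490 and 650 nm; IC50 from dose-response fit.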

[2] = Stability of compounds in human liver microsome; assay type: in vitro ADME; settings: human liver microsomes, NADPH, 37° C., sampling 0-120 min; read-out: Human liver microsome T1/2
Procedure: Compound to be tested: the compound to be tested (1 mg) was dissolved in DMSO (10 mL) to formulate to 0.1 mg/mL.
Internal standard compound: the internal standard compound (1 mg) was dissolved in DMSO (10 mL), 10 μL was taken and diluted to 10 mL to formulate to 100 ng/mL.
NADPH solution: NADPH (2.08 mg) was dissolved in PBS (50 μL) buffer to formulate to 50 mM.
Under the condition of ice bath, 1 mg of human liver microparticles was add to PBS (1 mL) buffer, then NADPH (20 μL) was added, and incubated at 37° C. for 5 min. 10 μL of the compound to be tested was added, and then samples were taken at 0, 15, 30, 60 and 120 min respectively. 10 μL of the solution was taken with a pipette each time and added to 490 μL of the solution containing the internal standard compound. The resulting solution was vortexed and then placed on ice, and then sampling at another time point continues. All samples were centrifuged at 10,000 rpm for 10 min, and the supernatant was taken for LC/MS testing. The metabolism of the compound in liver microsomes was calculated based on the peak area.

[3] = target: T1, BTK (Homo sapiens, UniProt Q06187); experiment: BTK degradation activity test in Mino cells; assay type: cell-based; settings: 16 h incubation, Western blot or Elisa
T1 construct: endogenous in cells; host or cells: Mino cells
How it was run: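 DC50 derived by curve fitting of BTK degradation rates versus untreated control across compound concentrations. Mino cells were exposed for 16 h; BTK levels in lysates, normalised via BCA protein, measured by Western blot or ELISA.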

[4] = test system: OCI-LY10 cells; experiment: Inhibitory activity on OCI-LY10 cell proliferation (MTS); assay type: cell-based; settings: Homo sapiens, 72 h
How it was run: as §1

T1 sequence (Q06187 whole entry): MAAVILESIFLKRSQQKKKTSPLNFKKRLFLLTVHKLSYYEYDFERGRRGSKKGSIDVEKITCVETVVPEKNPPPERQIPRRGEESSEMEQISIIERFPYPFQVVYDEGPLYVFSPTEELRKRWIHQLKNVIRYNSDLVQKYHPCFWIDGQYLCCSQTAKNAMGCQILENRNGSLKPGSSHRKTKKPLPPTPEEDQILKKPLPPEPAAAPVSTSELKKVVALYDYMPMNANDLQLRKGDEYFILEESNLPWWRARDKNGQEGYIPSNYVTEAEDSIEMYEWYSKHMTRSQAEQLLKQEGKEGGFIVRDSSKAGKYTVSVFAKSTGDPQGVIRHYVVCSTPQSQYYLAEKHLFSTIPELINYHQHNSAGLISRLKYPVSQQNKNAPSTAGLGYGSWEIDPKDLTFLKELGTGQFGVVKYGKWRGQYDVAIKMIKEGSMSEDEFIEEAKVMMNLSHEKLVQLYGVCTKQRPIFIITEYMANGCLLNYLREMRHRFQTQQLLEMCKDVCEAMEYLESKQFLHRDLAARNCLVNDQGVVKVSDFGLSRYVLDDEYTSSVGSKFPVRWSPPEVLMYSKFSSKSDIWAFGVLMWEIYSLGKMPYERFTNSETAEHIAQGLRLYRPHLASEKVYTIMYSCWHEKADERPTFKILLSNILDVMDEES

half-life at 0.97 µg/mL [2] [min]	DC50 [3] [nM]	IC50 [4] [nM]	SMILES	IC50 [1] [nM]
> 30	< 1	2.6	COc1ccc(C(=O)N2CCC(CN3CCN(c4ccc(Nc5nc(N6CCC[C@@H](N7CCN(C)C7=O)C6)nnc5C(N)=O)cc4F)CC3)C2)cc1N1CCC(=O)NC1=O (stereo partly drawn) [Compound 149, 5-((4-(4-((1-(3-(2,4-dioxotetrahydropyrimidin-1(2H)-yl)-4-methoxybenzoyl)pyrrolidin-3-yl)methyl)piperazin-1-yl)-3-fluorophenyl)amino)-3-((R)-3-(3-methyl-2-oxoimidazolin-1-yl)piperidin-1-yl)-1,2,4-triazin-6-carboxamide]	8.89
43.2	< 1	0.37	CN1CCN([C@@H]2CCCN(c3nnc(C(N)=O)c(Nc4ccc(C5CCN(CC6CCN(c7ccc8c(c7)C(=O)N(C7CCC(=O)NC7=O)C8=O)C6)CC5)c(F)c4)n3)C2)C1=O (stereo partly drawn) [Compound 128, 5-((4-(1-((1-(2-(2,6-dioxopiperidin-3-yl)-1,3-dioxoisoindolin-5-yl)pyrrolidin-3-yl)methyl)piperidin-4-yl)-3-fluorophenyl)amino)-3-((R)-3-(3-methyl-2-oxoimidazolin-1-yl)piperidin-1-yl)-1,2,4-triazin-6-carboxamide]	1.93
> 30	< 1	2.39	CN1CCN([C@@H]2CCCN(c3nnc(C(N)=O)c(Nc4ccc(N5CCN(CC6CCN(c7ccc(C(=O)N[C@H]8CCC(=O)NC8=O)c(F)c7)CC6)CC5)c(F)c4)n3)C2)C1=O [Compound 172, 5-((4-(4-((1-(4-(((S)-2,6-dioxopiperidin-3-yl)carbamoyl)-3-fluorophenyl)piperidin-4-yl)methyl)piperazin-1-yl)-3-fluorophenyl)amino)-3-((R)-3-(3-methyl-2-oxoimidazolidin-1-yl)piperidin-1-yl)-1,2,4-triazin-6-carboxamide]	6.2
26.3	< 1	0.47	NC(=O)c1nnc(N2CCC[C@@H](N3CCN(CC(F)(F)F)C3=O)C2)nc1Nc1ccc(C2CCN(CC3CCN(c4ccc5c(c4)C(=O)N(C4CCC(=O)NC4=O)C5=O)C3)CC2)cc1 (stereo partly drawn) [Compound 140, 5-((4-(1-((1-(2-(2,6-dioxopiperidin-3-yl)-1,3-dioxoisoindolin-5-yl)pyrrolidin-3-yl)methyl)piperidin-4-yl)phenyl)amino)-3-((R)-3-(2-oxo-3-(2,2,2-trifluoroethyl)imidazolin-1-yl)piperidin-1-yl)-1,2,4-triazin-6-carboxamide]	3.46
25	< 1	0.11	NC(=O)c1nnc(N2CCC[C@@H](N3C(=O)CCC3=O)C2)nc1Nc1ccc(C2CCN(CC3CCN(c4ccc5c(c4)C(=O)N(C4CCC(=O)NC4=O)C5=O)CC3)CC2)cc1 (stereo partly drawn) [Compound 135, 5-((4-(1-((1-(2-(2,6-dioxopiperidin-3-yl)-1,3-dioxoisoindolin-5-yl)piperidin-4-yl)methyl)piperidin-4-yl)phenyl)amino)-3-((R)-3-(2,5-dioxopyrrolidin-1-yl)piperidin-1-yl)-1,2,4-triazin-6-carboxamide]	1.36
> 30	< 1	2.65	CN1CCN([C@@H]2CCCN(c3nnc(C(N)=O)c(Nc4ccc(N5CCN(CC6CCN(c7ccc(C(=O)N[C@H]8CCC(=O)NC8=O)nc7)CC6)CC5)c(F)c4)n3)C2)C1=O [Compound 171, 5-((4-(4-((1-(6-(((S)-2,6-dioxopiperidin-3-yl)carbamoyl)pyridin-3-yl)piperidin-4-yl)methyl)piperazin-1-yl)-3-fluorophenyl)amino)-3-((R)-3-(3-methyl-2-oxoimidazolidin-1-yl)piperidin-1-yl)-1,2,4-triazin-6-carboxamide]	3.43

From patent US20240360146A1, “BRUTON'S TYROSINE KINASE AND MUTANT DEGRADER, COMPOSITION AND APPLICATION THEREOF” (HANGZHOU HEALZEN THERAPEUTICS CO., LTD., priority 2021, published 2024)
